The text below walks through data of patent US6821980B1, “Substituted 5-benzyl-2,4-diaminopyrimidines” (Basilea Pharmaceutica AG, priority 1999, dated 2004).

The target of test [1] is T1, purified DHFR of strain Sp1/1 of Streptococcus pneumoniae (Streptococcus pneumoniae serotype 4, UniProt Q54801).
T1 sequence (Q54801 1-168 I100L): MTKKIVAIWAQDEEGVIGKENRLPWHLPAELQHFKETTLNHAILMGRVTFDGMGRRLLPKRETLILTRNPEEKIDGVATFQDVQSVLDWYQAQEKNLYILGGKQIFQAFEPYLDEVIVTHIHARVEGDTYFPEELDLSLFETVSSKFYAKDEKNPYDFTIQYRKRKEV
The class given is biochemical. The note with it: Table 2; IC50 against purified DHFR of strain Sp1/1.

In test [2] the test system is Staphylococcus aureus 101. In words: MIC against Staphylococcus aureus 101. The class given is cell-based. The note with it: Table 2; Staphylococcus aureus 101, MRSA- and trimethoprim-resistant; clinical isolate; read-out: MIC Sa101.
In test [3] the target is purified DHFR of strain 157/4696 of Staphylococcus aureus (Staphylococcus aureus, UniProt P13955). In words: biochemical.
Test [4] has as its system Streptococcus pneumoniae 1/1. Description: MIC against Streptococcus pneumoniae 1/1. The class given is cell-based. The note with it: Table 2; Streptococcus pneumoniae 1/1, trimethoprim- and penicillin-resistant, serotype 6; clinical isolate; read-out: MIC Sp1/1.

In brackets after ≈: the same amount, converted by molar mass.

purified DHFR of strain 157/4696 of Staphylococcus aureus, sequence (P13955 whole entry): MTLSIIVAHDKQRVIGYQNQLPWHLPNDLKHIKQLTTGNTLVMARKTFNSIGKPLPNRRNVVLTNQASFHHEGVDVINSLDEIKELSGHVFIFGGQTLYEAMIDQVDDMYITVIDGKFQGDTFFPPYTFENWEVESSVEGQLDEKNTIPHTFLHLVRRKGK

Regarding `CCOc1cc(Cc2cnc(N)nc2N)cc(OCC)c1-c1ccc2c(c1)CCCN2` [Example 49-, 5-[3,5-Diethoxy-4-(1,2,3,4-tetrahydro-quinolin-6-yl)-benzyl]-pyrimidine-2,4-diamine], the IC50 – broadly, the midpoint of a concentration-inhibition curve – in test [1] worked out at 46 nM; in test [3], 820 nM. Moreover, the MIC in test [2] came out at 4 µg/mL (≈ 9.53 µM); in test [4], 8 µg/mL (≈ 19.1 µM).
Turning to `CCOc1cc(Cc2cnc(N)nc2N)cc(OCC)c1-c1cccc(OCCOC)c1` [Example 50-, 5-[2,6-Diethoxy-3′-(2-methoxy-ethoxy)-biphenyl-4-ylmethyl]-pyrimidine-2,4-diamine], the IC50 worked out at 32 nM in test [1] and 10000 nM in test [3]. In addition, the MIC in test [2] came to 8 µg/mL (≈ 18.2 µM); in test [4], 4 µg/mL (≈ 9.12 µM).
The matching figures for `CCCOc1cc(Cc2cnc(N)nc2N)cc(OCCC)c1-c1cccc(N)c1` [Example 51-, 5-(3′-Amino-2,6-di-n-propoxy-biphenyl-4-ylmethyl)-pyrimidine-2,4-diamine]: 43 nM, 8500 nM, 8 µg/mL (≈ 19.6 µM) and 2 µg/mL (≈ 4.91 µM).
With `CCCOc1cc(Cc2cnc(N)nc2N)cc(OCCC)c1-c1cccc(O)c1` [Example 52-, 4′-(2,4-Diamino-pyrimidin-5-ylmethyl)-2′,6′-digropobiphenyl-3-ol], the IC50 in test [1] amounted to 20 nM; in test [3] it was 5800 nM. The results for the MIC in test [2] and in test [4] were 8 µg/mL (≈ 19.6 µM) and 1 µg/mL (≈ 2.45 µM), respectively.
On to `CCCOc1cc(Cc2cnc(N)nc2N)cc(OCC)c1-c1cccc(O)c1` [Example 53-, 4′-(2,4-Diamino-pyrimidin-5-ylmethyl)-6′-ethoxy-2′-n-propoxy-biphenyl-3-ol], for which the values for the IC50 in test [1] and in test [3] were 28 nM and 1800 nM, respectively. In addition, the MIC was 8 µg/mL (≈ 20.3 µM) in test [2] and 4 µg/mL (≈ 10.1 µM) in test [4].
Consider `CCOc1cc(Cc2cnc(N)nc2N)cc(OCC2CC2)c1-c1cccc(O)c1` [Example 54-, 2′-Cyclopropanomethoxy-4′-(2,4-diamino-pyrimidin-5-ylmethyl)-6′-ethoxy-biphenyl-3-ol], for which the IC50 in test [1] was determined as 19 nM; in test [3] it was 3100 nM. The MIC in test [2] came out at 8 µg/mL (≈ 19.7 µM); in test [4], 2 µg/mL (≈ 4.92 µM).
Turning to `CCOc1cc(Cc2cnc(N)nc2N)cc(OCC2CC2)c1-c1ccc(OCCO)cc1` [Example 55-, 2-[2′-Cyclopropylmethoxy-4′-(2,4-diamino-pyrimidin-5-ylmethyl)-6′-ethoxy-biphenyl-4-yloxy]-ethanol], the IC50 in test [1] came to 48 nM; in test [3] it was 1700 nM. Besides, the MIC worked out at 8 µg/mL (≈ 17.8 µM) in test [2] and 4 µg/mL (≈ 8.88 µM) in test [4].
The corresponding values for `CCOc1cc(Cc2cnc(N)nc2N)cc(OCC2CC2)c1-c1ccc(OS(C)(=O)=O)cc1` [Example 57-, Methanesulphonic acid 2′-cylopropylmethoxy-4′-(2,4-diamino-pyrimidin-5-ylmethyl)-6′-ethoxy-biphenyl-4-yl ester] are 30 nM, 3600 nM, 8 µg/mL (≈ 16.5 µM) and 4 µg/mL (≈ 8.25 µM).
As to `CCOc1cc(Cc2cnc(N)nc2N)cc(OS(=O)(=O)C(C)C)c1-c1ccc(OC(C)=O)cc1` [Example 58-, 4′-(2,4-Diamino-pyrimidin-5-ylmethyl)-6′-ethoxy-2′-(propane-2-sulphonyloxy)-biphenyl-4-yl acetate], the IC50 in test [1] turned out to be 32 nM; in test [3] it was 55 nM. Besides, the MIC in test [2] and in test [4] was 2 µg/mL in each case.
Consider `CCOc1cc(Cc2cnc(N)nc2N)cc(OCC2CC2)c1-c1ccc(OCC#N)cc1` [Example 59-, [2′-Cycloproplmethoxy-4′-(2,4-diamino-pyrimidin-5-ylmethyl)-6′-ethoxy-biphenyl-4-yloxy]-acetonitrile], for which the IC50 was 18 nM in test [1] and 1800 nM in test [3]. For the same compound, the MIC in test [2] turned out to be 8 µg/mL (≈ 18 µM); in test [4] it was 2 µg/mL (≈ 4.49 µM).
Take `CCOc1cc(Cc2cnc(N)nc2N)cc(OS(=O)(=O)N(C)C)c1-c1ccc(S(C)(=O)=O)cc1` [Example 60-, Dimethylsulphamic acid 4-(2,4-diamino-pyrimidin-5-ylmethyl)-6-ethoxy-4′-methanesulphonyl-biphenyl-2-yl ester]: the IC50 came out at 88 nM in test [1] and 280 nM in test [3]. In addition, the MIC in test [2] was 4 µg/mL (≈ 7.67 µM); in test [4], 8 µg/mL (≈ 15.3 µM).
The matching figures for `CCOc1cc(Cc2cnc(N)nc2N)cc(OS(=O)(=O)CC(C)C)c1-c1ccc(OCCO)cc1` [Example 61-a, 2-Methyl-propane-1-sulphonic acid 4-(2,4-diamino-pyrimidin-5-ylmethyl)-6-ethoxy-4′-(2-hydroxy-ethoxy)-biphenyl-2-yl ester]: 1.8 nM, 550 nM, 2 µg/mL (≈ 3.87 µM) and 0.5 µg/mL (≈ 0.968 µM).
For the compound `CCOc1cc(Cc2cnc(N)nc2N)cc(OS(=O)(=O)C(C)CC)c1-c1ccc(OCCO)cc1` (stereo not shown) [Example 61-b], the 50% inhibitory concentration (IC50) in test [1] was 11 nM; in test [3], 210 nM. The MIC is 2 µg/mL (≈ 3.87 µM) in test [2] and 1 µg/mL (≈ 1.94 µM) in test [4].
With `CCOc1cc(Cc2cnc(N)nc2N)cc(OS(=O)(=O)N(C)C)c1-c1ccc(OC(C)=O)cc1` [Example 62-, 4′-(2,4-Diamino-pyrimidin-5-ylmethyl)-2′-dimethylsulphamoylxy-6′-ethoxy-biphenyl-4-yl acetate], the IC50 in test [1] amounted to 7.9 nM; in test [3] it was 330 nM. The MIC in test [2] and in test [4] was 2 µg/mL each time.
On to `CCOc1cc(Cc2cnc(N)nc2N)cc(OS(=O)(=O)CC(C)C)c1-c1ccc(OCCOC)cc1` [Example 63-, 2-Methyl-propane-1-sulphonic acid 4-(2,4-diamino-pyrimidin-5-ylmethyA)-6-ethoxy-4′-(2-methox-ethoxy)-biphenyl-2-yl ester], for which the results for the IC50 in test [1] and in test [3] were 1.8 nM and 380 nM, respectively. The MIC in test [2] amounted to 4 µg/mL (≈ 7.54 µM); in test [4], 1 µg/mL (≈ 1.88 µM).
The corresponding values for `CCOc1cc(Cc2cnc(N)nc2N)cc(OS(C)(=O)=O)c1-c1ccc(CN2CCOCC2)c(F)c1` [Example 64-a, Methanesulphonic acid 4-(2,4-diamino-pyrimidin-5-ylmethyl)-6-ethoxy-3′-fluoro-4′-morpholin-4-ylmethyl-biphenyl-2-yl ester] are 52 nM, 1500 nM, 8 µg/mL (≈ 15 µM) and 4 µg/mL (≈ 7.52 µM).
The matching figures for `CCOc1cc(Cc2cnc(N)nc2N)cc(OS(=O)(=O)N(C)C)c1-c1ccc(CN2CCOCC2)c(F)c1` [Example 64-b, Dimethylsulphamic acid 4-(2,4-diamino-pyrimidin-5-ylmethUl)-6-ethoxy-3′-fluoro-4′-morpholin-4-ylmethyl-biphenyl-2-yl ester]: 27 nM, 300 nM, 2 µg/mL (≈ 3.57 µM) and 2 µg/mL (≈ 3.57 µM).
The matching figures for `CCOc1cc(Cc2cnc(N)nc2N)cc(OS(=O)(=O)N(C)C)c1-c1ccc(CN2CCOCC2)cc1` [Example 65-, Dimethylsulphamic acid 4-(2,4-diamino-pyrimidin-5-ylmethyl)-6-ethoxy-4′-morpholin-4-ylmethyl-biphenyl-2-yl ester]: 24 nM, 160 nM, 2 µg/mL (≈ 3.69 µM) and 2 µg/mL (≈ 3.69 µM).
Consider `CCOc1cc(Cc2cnc(N)nc2N)cc(OS(=O)(=O)N(C)C)c1-c1ccc(CN(C)CCF)cc1` [Example 66-, Dimethylsulphamic acid 4-(2,4-diamino-pyrimidin-5-ylmethyl)-6-ethoxy-4′-{[N-(2-fluoro-ethyl)-N-methyl-amino]-methyl}-binhenyl-2-yl ester], for which the IC50 in test [1] was determined as 52 nM; in test [3], 170 nM. Moreover, the figures for the MIC in test [2] and in test [4] were 2 µg/mL (≈ 3.75 µM) and 4 µg/mL (≈ 7.51 µM), respectively.
